Test results: PMC6275967 (ACS Omega, 2018)
≈ marks a conversion by molar mass, not a printed value. Where “and” joins values, the source holds several entries; their conditions need not be identical. Equal values may be shown once.

Legend:
cupin domain of CapF = conditions: isothermal titration calorimetry; cited from earlier work
[1] = test system: S. aureus Newman, G01, and F4; assay: MIC80 of S. aureus Newman, G01 and F4
E. coli (ATCC 35218) [2] = assay: time-killing curve; type: cell-based, Escherichia coli; conditions: 16× MIC80, within 6 h
Cryptococcus neoformans = conditions: ref 15 and unpublished data; cited from earlier work
S. aureus (ATCC 29213) = assay: MIC80 by broth microdilution; type: cell-based, Staphylococcus aureus
E. coli (ATCC 35218) [3] = assay: MIC80 by broth microdilution; type: cell-based, Escherichia coli; conditions: for MIC80 E. coli (ATCC35218): ≥80% growth inhibition, 16–24 h, CAMHB

## C=C(C)c1ccccc(=O)c1O [Compound 349, 3-isopropenyl-tropolone]
Cupin domain of CapF
  Kd: 27 ± 7 µM
[1]; F4 and G01 strains
  growth inhibition, in words: did not inhibit
[1]; S. aureus F4 (Newman with ermB-inactivated cap5F gene)
  MIC80: 100 µM (≈ 16.2 µg/mL)
[1]; S. aureus G01 (Newman with ermB-inactivated cap5G gene)
  MIC80: 100 µM (≈ 16.2 µg/mL)
[1]; S. aureus Newman
  MIC80: 66.7 µM (≈ 10.8 µg/mL)
[1]; wild-type Newman
  growth inhibition, in words: slightly inhibited

## O=c1cccccc1S [Compound 363, thiotropolone]
E. coli (ATCC 35218) [2]
  reduction of colony count: ~3 log10
Cryptococcus neoformans
  MIC80 Cryptococcus neoformans: 0.25 µM (≈ 0.0345 µg/mL)
S. aureus (ATCC 29213); structure-activity discussion
  inhibition of S. aureus, in words: only slightly decreased

## O=C(Sc1cccccc1=O)c1ccccc1 [Compound 364]
E. coli (ATCC 35218) [3]
  MIC80 E. coli (ATCC35218): < 30 µM
S. aureus (ATCC 29213); ≥80% growth inhibition, 16–24 h, CAMHB
  MIC80 S. aureus (ATCC29213): < 20 µM

## O=C(Sc1cccccc1=O)c1ccccc1C(F)(F)F [Compound 677]
E. coli (ATCC 35218) [3]
  MIC80 E. coli (ATCC35218): < 20 µM

## O=C(Sc1cccccc1=O)c1cccc(C(F)(F)F)c1 [Compound 678]
E. coli (ATCC 35218) [3]
  MIC80 E. coli (ATCC35218): < 20 µM

## O=C(Cc1ccccc1)Sc1cccccc1=O [Compound 680]
E. coli (ATCC 35218) [3]
  MIC80 E. coli (ATCC35218): < 30 µM and < 20 µM

## O=c1cccccc1Sc1cccccc1=O [Compound 684]
E. coli (ATCC 35218) [3]
  MIC80 E. coli (ATCC35218): < 20 µM

## O=c1cccccc1SSc1cccccc1=O [Compound 685]
E. coli (ATCC 35218) [3]
  MIC80 E. coli (ATCC35218): < 20 µM

## CC[C@H](C)[C@H](NC(=O)OCC1c2ccccc2-c2ccccc21)C(=O)Sc1cccccc1=O [Compound 686]
E. coli (ATCC 35218) [3]
  activity against E. coli, in words: inactive
